Measurements published in patent US12421276B2 (priority 2016, dated 2025).
Several values for one entry are separate records, joined by “and”; a condition that tells them apart may be missing. Equal entries are not always repeated. Where two headings read alike, the source gives them in different places. Where a SMILES comes first, the peptide text is derived from it. [ ]: non-standard residue; d: D form. The star is where a group is joined. pY = N[CH](Cc1ccc(OP(=O)(O)O)cc1)C(=O)O; Hexanoyl = CCCCCC(=O)*; Ahx = NCCCCCC(=O)O

Tests used:
[1] = Metabolic stability in simulated intestinal fluid (SIF), pH 6.8, with or without pancreatin; assay type: in vitro ADME; conditions: 5 μM, 37° C.; for half-life: simulated gi fluid
Method: (§1) Metabolic Stability in SIF and SGF (Simulated Intestinal and Gastric Fluid)
Buffer 3=SIF without enzyme
Buffer 4=SIF with 1% pancreatin
(§2) SIF was prepared freshly with 8.7 mM NaOH, 28.65 mM NaH2PO4, 105.85 mM NaCl, with a final pH of 6.8. SGF was prepared freshly with 34.2 mM NaCl, with a final pH of 1.2. Enzymes such as pepsin or pancreatin were added to some buffers. Human and rat plasma (K2 EDTA) were purchased from BioreclamationIVT.
(§3) Compounds were dissolved as 1.5 mM DMSO stocks. Compounds were transferred to SIF, SGF, or plasma at 5 μM on a 96-well deep well plate. After mixing, samples were transferred to several 96-well plates (25 μL/well), and incubated at 37° C. The extent of metabolism was calculated as the disappearance of the test compound, compared to the 0-min control reaction incubations. Candesartan Cilexetil and omeprazole were included as positive controls for SIF and SGF, respectively, to verify assay performance.
(§4) At each of the time points, 150 μL of quench solution (100% acetonitrile with 0.1% formic acid) with internal standard (bucetin for positive ESI mode and warfarin for negative ESI mode) was transferred to each well. Plates were sealed and centrifuged at 4° C. for 15 minutes at 4000 rpm. The supernatant was transferred to fresh plates for LC/MS/MS analysis.
(§5) Elution conditions are detailed in the table below.
(§6) Initial rates of the clearance of test compounds were calculated using linear regression of semi-log plot of % remaining of compounds versus time. The elimination rate constant (equals to −slope) of the linear regression was then used to determine t½ values.

[2] = Plasma stability study, human plasma; assay type: in vitro ADME; conditions: Human plasma, 1 μM, 37° C.
Method: (§7) Human and rat plasma (K2 EDTA) were obtained from Bioreclamation.
(§8) Compounds were dissolved as 0.3 mM DMSO stocks. Compounds were transferred to the plasma at 1 μM on a 96-well deep well plate. After mixing, samples were transferred to several 96-well plates (25 μL/well), and incubated at 37° C. The extent of metabolism was calculated as the disappearance of the test compound, compared to the 0-min control reaction incubations. Propantheline was included as a positive control to verify assay performance.
as §4, with “(50% acetonitrile, 50% methanol” for “(100% acetonitrile”, “0.05%” for “0.1%”
as §5, §6

[3] = Metabolic stability in simulated gastric fluid (SGF), pH 1.2, with or without pepsin; assay type: in vitro ADME; conditions: 5 μM, 37° C.; for half-life: simulated gi fluid
Method: as §1
Buffer 1=SGF without enzyme
Buffer 2=SGF with 0.32% pepsin
as §2, §3, §4, §5, §6

[4] = Plasma stability study, rat plasma; assay type: in vitro ADME; conditions: Rat plasma, 1 μM, 37° C.
Method: as §7, §8
as §4, with “(50% acetonitrile, 50% methanol” for “(100% acetonitrile”, “0.05%” for “0.1%”
as §5, §6

[5] = assay type: in vivo, rat; conditions: rat, dosed as prodrug, 10 mg/kg equivalent of Base Structure
Method: • 1. Eight (8) male JVC SD rats (purchased from Charles River Lab) were monitored daily for body condition and health status during the 3-5 days acclimation period. The rats were randomly assigned into […] (n=4). • 2. […] The dosed rats were individually placed into a metabolic cage, and have access to food and water at all times. The urine from each rat was collected daily from the metabolic cages, and kept in dry ice. • 4. At predose (0 min), 5 min, 15 min, 30 min, 1 hr, 2 hr, 8 hr, and 24 hr post dosing, approximately 200 ul blood samples were collected from each rat and transferred to EDTA tubes. • 5. The blood samples in EDTA vials were centrifuged at 4° C. and 6,000 rpm for 10 minutes to generate ˜100 μl of plasma per sample. Blood samples were processed as quickly as possible and remain no longer than 2 min at room temperature and no longer than 15 minutes at 4° C. prior to processing. • 6. All samples were transferred for bioanalytic assay using LCMS

[6] = analyte Parent (Base Structure), Average
[7] = analyte Parent (Base Structure), Combined (average ± std. dev.)
[8] = analyte Parent (Base Structure), individual animals, 10 mg/kg
[9] = analyte Prodrug, Combined (average ± std. dev.)
[10] = analyte Prodrug, individual animals

## CCCCCC(=O)NC(Cc1ccc(OP(=O)([O-])O)cc1)C(=O)NC(C(=O)NCCCCCC(N)=O)C(C)CC.[Na+] (stereo not drawn) [Compound A30] (Hexanoyl-[pY]-Ile-[Ahx]-NH2; configuration not given here)
[1]; +Pancreatin (1%)
  SIF Stability (pH 6.8) Half-Life (min): 156.6 min
  SIF Stability (pH 6.8) 0 min: 100%
  SIF Stability (pH 6.8) 60 min: 70%
  SIF Stability (pH 6.8) 120 min: 51%
  SIF Stability (pH 6.8) 240 min: 34%
[1]; −Pancreatin
  SIF Stability (pH 6.8) Half-Life (min): 68.4 min
  SIF Stability (pH 6.8) 0 min: 100%
  SIF Stability (pH 6.8) 60 min: 43%
  SIF Stability (pH 6.8) 120 min: 22%
  SIF Stability (pH 6.8) 240 min: 8%
[2]
  Plasma Stability Half-Life: 1.4 h
  Plasma Stability (% Parent Remaining) 0 min: 100%
  Plasma Stability (% Parent Remaining) 60 min: 36%
  Plasma Stability (% Parent Remaining) 120 min: 20%
  Plasma Stability (% Parent Remaining) 240 min: 12%
[3]; +Pepsin (0.32%)
  SGF Stability (pH 1.2) Half-Life (min): 248.3 min
  SGF Stability (pH 1.2) 0 min: 100%
  SGF Stability (pH 1.2) 60 min: 95%
  SGF Stability (pH 1.2) 120 min: 64%
  SGF Stability (pH 1.2) 240 min: 54%
[3]; −Pepsin
  SGF Stability (pH 1.2) Half-Life (min): 1713.6 min
  SGF Stability (pH 1.2) 0 min: 100%
  SGF Stability (pH 1.2) 60 min: 95%
  SGF Stability (pH 1.2) 120 min: 98%
  SGF Stability (pH 1.2) 240 min: 89%
[4]
  Plasma Stability Half-Life: 21.79 h
  Plasma Stability (% Parent Remaining) 0 min: 100%
  Plasma Stability (% Parent Remaining) 60 min: 88%
  Plasma Stability (% Parent Remaining) 120 min: 87%
  Plasma Stability (% Parent Remaining) 240 min: 86%

## CCCCCC(=O)N1C(Cc2ccc(OP(=O)([O-])[O-])cc2)C(=O)N(C(C(=O)NCCCCCC(N)=O)C(C)CC)C12CCN(C)CC2.[Na+].[Na+] (stereo not drawn) [Compound 2]
[1]; +Pancreatin (1%)
  SIF Stability (pH 6.8) 0 min: 100%
  SIF Stability (pH 6.8) 60 min: 94%
  SIF Stability (pH 6.8) 120 min: 51%
  SIF Stability (pH 6.8) 240 min: 34%
[1]; pH 6.8, +Pancreatin (1%)
  half-life: 2.37 h
[1]; pH 6.8, −Pancreatin
  half-life: 13.4 h
[1]; −Pancreatin
  SIF Stability (pH 6.8) 0 min: 100%
  SIF Stability (pH 6.8) 60 min: 82%
  SIF Stability (pH 6.8) 120 min: 82%
  SIF Stability (pH 6.8) 240 min: 78%
[2]
  half-life: 7.08 h
  Plasma Stability (% Parent Remaining) 0 min: 100%
  Plasma Stability (% Parent Remaining) 60 min: 113%
  Plasma Stability (% Parent Remaining) 120 min: 90%
  Plasma Stability (% Parent Remaining) 240 min: 72%
[3]; +Pepsin (0.32%)
  SGF Stability (pH 1.2) 0 min: 100%
  SGF Stability (pH 1.2) 60 min: 94%
  SGF Stability (pH 1.2) 120 min: 89%
  SGF Stability (pH 1.2) 240 min: 73%
[3]; pH 1.2, +Pepsin (0.32%)
  half-life: 8.62 h
[3]; pH 1.2, −Pepsin
  half-life: 7.17 h
[3]; −Pepsin
  SGF Stability (pH 1.2) 0 min: 100%
  SGF Stability (pH 1.2) 60 min: 84%
  SGF Stability (pH 1.2) 120 min: 78%
  SGF Stability (pH 1.2) 240 min: 67%
[4]
  half-life: 18.1 h
  Plasma Stability (% Parent Remaining) 0 min: 100%
  Plasma Stability (% Parent Remaining) 60 min: 82%
  Plasma Stability (% Parent Remaining) 120 min: 77%
  Plasma Stability (% Parent Remaining) 240 min: 83%
[5]; [6]
  Cl/F_obs: 0.2421 (mg/kg)/(ng/ml)/h
  Vz/F_obs: 6.571 (mg/kg)/(ng/ml)
[5]; [7]
  Cl/F_obs: 0.2 ± 0.1 (mg/kg)/(ng/ml)/h
  Vz/F_obs: 6.6 ± 6.9 (mg/kg)/(ng/ml)
[5]; [8]
  Cl/F_obs: 0.1263 (mg/kg)/(ng/ml)/h and 0.2902 (mg/kg)/(ng/ml)/h and 0.3099 (mg/kg)/(ng/ml)/h
  Vz/F_obs: 0.6603 (mg/kg)/(ng/ml) and 4.961 (mg/kg)/(ng/ml) and 14.09 (mg/kg)/(ng/ml)
[5]; analyte Prodrug, Average
  AUMC 0-inf_obs: 0 ng/ml * h^2
  Cl/F_obs: 0 (mg/kg)/(ng/ml)/h
  Lambda_z: 0 h⁻¹
  Tlag: 0 h
  Tmax: 0 h
  Vz/F_obs: 0 (mg/kg)/(ng/ml)
[5]; [9]
  AUMC 0-inf_obs: 0 ng/ml * h^2
  Cl/F_obs: 0 (mg/kg)/(ng/ml)/h
  Lambda_z: 0 h⁻¹
  Tlag: 0 h
  Tmax: 0 h
  Vz/F_obs: 0 (mg/kg)/(ng/ml)
[5]; [10]
  AUMC 0-inf_obs: 0 ng/ml * h^2
  Cl/F_obs: 0 (mg/kg)/(ng/ml)/h
  Lambda_z: 0 h⁻¹
  Tlag: 0 h
  Tmax: 0 h
  Vz/F_obs: 0 (mg/kg)/(ng/ml)
